Assay results taken from patent publication US20210068395A1, “METHODS OF APPLYING ONE OR MORE CERTAIN HETEROARYL-1,2,4-TRIAZOLE AND HETEROARYL-TETRAZOLE COMPOUNDS TO CONTROL DAMAGE ON PLANTS, PROPAGATION MATERIAL THEREOF, AND PLANT DERIVED PRODUCTS” (SYNGENTA CROP PROTECTION AG, priority 2018, published 2021).
Where two headings read alike, the source gives them in different places.

Legend:
Type in all cases: in vivo
[1] = system: Spodoptera littoralis (Egyptian Cotton Leaf Worm); assay: Spodoptera littoralis feeding/contact activity; details: foliar, 72 h, read-out: control in at least one of the three categories (mortality or growth inhibition or anti-feeding)
Protocol: (§1) Cotton leaf discs were placed onto agar in 24-well microtiter plates and sprayed with aqueous test solutions prepared from 10,000 ppm DMSO stock solutions. After drying the leaf discs were infested with five L1 larvae. The samples were assessed for mortality, anti-feeding and growth inhibition 3 days after infestation.

[2] = system: Plutella xylostella (Diamond Back Moth); assay: Plutella xylostella feeding/contact activity, 24-well artificial diet; details: 192 h, read-out: control in at least one of the two categories (mortality or growth inhibition)
Protocol: 24-well microtiter plates with artificial diet were treated with aqueous test solutions prepared from 10,000 ppm DMSO stock solutions by pipetting. After drying, Plutella eggs were pipetted through a plastic stencil onto a gel blotting paper and the plate was closed with it. The samples were assessed for mortality and growth inhibition in comparison to untreated samples 8 days after infestation.

[3] = system: Diabrotica balteata (corn root worm); assay: Diabrotica balteata (corn root worm), sprayed maize sprouts; details: 96 h, read-out: control in at least one of the two categories (mortality or growth inhibition)
Protocol: Maize sprouts placed onto an agar layer in 24-well microtiter plates were treated with aqueous test solutions prepared from 10,000 ppm DMSO stock solutions by spraying. After drying, the plates were infested with L2 larvae (6 to 8 per well). The samples were assessed for mortality and growth inhibition in comparison to untreated samples 4 days after infestation.

[4] = system: Thrips tabaci (Onion thrips); assay: Thrips tabaci feeding/contact activity; details: foliar, 144 h, read-out: control in at least one of the two categories (mortality or anti-feeding)
Protocol: as §1, with “Sunflower” for “Cotton”, “on” for “onto”, “a thrips population of mixed ages.” for “five L1 larvae.”, “mortality, and” for “mortality,”, “6” for “and growth inhibition 3”

[5] = system: Plutella xylostella (Diamond Back Moth); assay: Plutella xylostella feeding/contact activity, 96-well artificial diet; details: 216 h, application rate 500 ppm, 9 days after infestation
Protocol: 1, 2, 3, 4, 17, 19, 23, 26, 39, 41, 42, 54, 55, 56 Plutella xylostella (Diamond Back Moth):Feeding/Contact Activity 96-well microtiter plates containing artificial diet were treated with aqueous test solutions, prepared from 10,000 ppm DMSO stock solutions, by a liquid handling robot. After drying, eggs (˜30 per well) were infested onto a netted lid which was suspended above the diet. The eggs hatch and L1 larvae move down to the diet. The samples were assessed for mortality 9 days after infestation.

[6] = system: Euschistus heros (Neotropical Brown Stink Bug); assay: Euschistus heros feeding/contact activity; details: 120 h, read-out: control in at least one of the two categories (mortality or growth inhibition)
Protocol: Soybean leaves on agar in 24-well microtiter plates were sprayed with aqueous test solutions prepared from 10,000 ppm DMSO stock solutions. After drying the leaves were infested with N2 nymphs. The samples were assessed for mortality and growth inhibition 5 days after infestation.

[7] = system: Myzus persicae (Green Peach Aphid); assay: Myzus persicae feeding activity (sucrose solution, Parafilm); details: 120 h, test rate 12.5 ppm, in sucrose solution, 5 days after infestation
Protocol: Test compounds prepared from 10,000 ppm DMSO stock solutions were applied by pipette into 24-well microtiter plates and mixed with sucrose solution. The plates were closed with a stretched Parafilm. A plastic stencil with 24 holes was placed onto the plate and infested pea seedlings were placed directly on the Parafilm. The infested plate was closed with a gel blotting paper and another plastic stencil and then turned upside down. The samples were assessed for mortality 5 days after infestation.

[8] = system: Spodoptera littoralis (Egyptian Cotton Leaf Worm); assay: Spodoptera littoralis systemic activity (lettuce); details: 144 h, test rate 12.5 ppm, root uptake in lettuce, 6 days after infestation, read-out: control in at least one of the three categories (mortality or growth inhibition or anti-feeding)
Source text: Test compounds were applied by pipette prepared from 10,000 ppm DMSO stock solutions into 24-well plates and mixed with agar. Lettuce seeds were placed onto the agar and the multi well plate was closed by another plate which contained also agar. After 7 days the compound was absorbed by the roots and the lettuce grew into the lid plate. The lettuce leaves were then cut off into the lid plate. Spodoptera eggs were pipetted through a plastic stencil onto a humid gel blotting paper and the lid plate was closed with it. The samples were assessed for mortality, anti-feeding and growth inhibition 6 days after infestation.

[9] = system: Myzus persicae (Green Peach Aphid); assay: Myzus persicae systemic activity; details: 144 h, test rate 24 ppm, roots of pea seedlings in test solution, 6 days
Protocol: Roots of pea seedlings infested with an aphid population of mixed ages were placed directly into aqueous test solutions prepared from 10,000 DMSO stock solutions. The samples were assessed for mortality 6 days after placing seedlings into test solutions.

[10] = system: Myzus persicae (Green Peach Aphid); assay: Myzus persicae feeding/contact activity; details: foliar, 144 h, application rate 200 ppm, sunflower leaf discs sprayed, 6 days after infestation
Protocol: Sunflower leaf discs were placed onto agar in a 24-well microtiter plate and sprayed with aqueous test solutions prepared from 10,000 ppm DMSO stock solutions. After drying, the leaf discs were infested with an aphid population of mixed ages. The samples were assessed for mortality 6 days after infestation.

[11] = application rate 200 ppm, L1 larvae on cotton leaf discs, 3 days after infestation
[12] = application rate 200 ppm, 24-well artificial diet, 8 days after infestation
[13] = application rate 200 ppm, L2 larvae, 4 days after infestation
[14] = application rate 200 ppm, sunflower leaf discs, 6 days after infestation
[15] = application rate 200 ppm, N2 nymphs on soybean leaves, 5 days after infestation

C[C@@H](c1ncnn1-c1ncccn1)N(C)C(=O)c1cc(C(F)(F)F)cc(C(F)(F)F)c1 [Compound 6]
≥ 80%: percent control (mortality, anti-feedant effect or growth inhibition) at 200 ppm [1, 11] | percent control (mortality or growth inhibition) at 200 ppm [2, 12] | percent control (mortality or growth inhibition) at 200 ppm [3, 13]

COC(=O)c1nc(C(C)NC(=O)c2cc(C(F)(F)F)cc(C(F)(F)F)c2)n(-c2ncccn2)n1 (stereo not shown) [Compound 7]
≥ 80%: percent control (mortality, anti-feedant effect or growth inhibition) at 200 ppm [4, 14] | percent control (mortality, anti-feedant effect or growth inhibition) at 200 ppm [1, 11] | percent control (mortality or growth inhibition) at 200 ppm [2, 12] | mortality at 500 ppm [5] | percent control (mortality or growth inhibition) at 200 ppm [3, 13]

CCOC(OCC)c1nc(C(C)NC(=O)c2cc(C(F)(F)F)cc(C(F)(F)F)c2)n(-c2ncccn2)n1 (stereo not shown) [Compound 8]
≥ 80%: percent control (mortality or growth inhibition) at 200 ppm [2, 12] | mortality at 500 ppm [5] | percent control (mortality or growth inhibition) at 200 ppm [3, 13]

CC(c1ncnn1-c1ncccn1)N(C[Si](C)(C)C)C(=O)c1cc(C(F)(F)F)cc(C(F)(F)F)c1 (stereo not shown) [Compound 16]
≥ 80%: percent control (mortality or growth inhibition) at 200 ppm ([6]; in Glycine max) | percent control (mortality, anti-feedant effect or growth inhibition) at 200 ppm [4] | percent control (mortality, anti-feedant effect or growth inhibition) at 200 ppm [1] | percent control (mortality or growth inhibition) at 200 ppm [2] | percent control (mortality or growth inhibition) at 200 ppm [3]

CC(c1ncnn1-c1ncccn1)N(CC1CC1)C(=O)c1cc(Br)cc(C(F)(F)F)c1 (stereo not shown) [Compound 19]
≥ 80%: percent control (mortality or growth inhibition) at 200 ppm [6, 15] | percent control (mortality, anti-feedant effect or growth inhibition) at 200 ppm [1, 11] | percent control (mortality or growth inhibition) at 200 ppm [2, 12] | mortality at 500 ppm [5] | mortality at 12.5 ppm [7] | percent control (mortality or growth inhibition) at 200 ppm [3, 13]

CC(c1ncnn1-c1ncccn1)N(CC1CC1)C(=O)c1cc(Cl)cc(C(F)(F)F)c1 (stereo not shown) [Compound 23]
≥ 80%: percent control (mortality, anti-feedant effect or growth inhibition) at 12.5 ppm [8] | percent control (mortality, anti-feedant effect or growth inhibition) at 200 ppm [1, 11] | percent control (mortality or growth inhibition) at 200 ppm [2, 12] | mortality at 500 ppm [5] | mortality at 12.5 ppm [7] | percent control (mortality or growth inhibition) at 200 ppm [3, 13]

COc1cnc(-n2ncnc2C(C)N(CC2CC2)C(=O)c2cc(C(F)(F)F)cc(C(F)(F)F)c2)nc1 (stereo not shown) [Compound 24]
≥ 80%: percent control (mortality or growth inhibition) at 200 ppm [2, 12] | percent control (mortality or growth inhibition) at 200 ppm [3, 13]

CC(c1ncnn1-c1ncccn1)N(CC1CC1)C(=O)c1cccc(C#N)c1 (stereo not shown) [Compound 25]
≥ 80%: percent control (mortality or growth inhibition) at 200 ppm [3, 13]

CC(c1ncnn1-c1ncccn1)N(CC1CC1)C(=O)c1cc(C(F)(F)F)nc(C(F)(F)F)c1 (stereo not shown) [Compound 41]
≥ 80%: percent control (mortality or growth inhibition) at 200 ppm [6, 15] | percent control (mortality, anti-feedant effect or growth inhibition) at 200 ppm [4, 14] | percent control (mortality, anti-feedant effect or growth inhibition) at 200 ppm [1, 11] | percent control (mortality or growth inhibition) at 200 ppm [2, 12] | mortality at 500 ppm [5] | mortality at 12.5 ppm [7] | percent control (mortality or growth inhibition) at 200 ppm [3, 13]

CC(c1ncnn1-c1ncccn1)N(CC1CC1)C(=O)c1cc(C#N)cc(C(F)(F)F)c1 (stereo not shown) [Compound 42]
≥ 80%: percent control (mortality or growth inhibition) at 200 ppm [6, 15] | percent control (mortality, anti-feedant effect or growth inhibition) at 200 ppm [4, 14] | percent control (mortality, anti-feedant effect or growth inhibition) at 200 ppm [1, 11] | percent control (mortality or growth inhibition) at 200 ppm [2, 12] | mortality at 500 ppm [5] | mortality at 24 ppm [9] | mortality at 12.5 ppm [7] | percent control (mortality or growth inhibition) at 200 ppm [3, 13]

CC(c1ncnn1-c1ncccn1)N(CC1CC1)C(=O)c1cncc(C(F)(F)F)c1 (stereo not shown) [Compound 47]
≥ 80%: percent control (mortality or growth inhibition) at 200 ppm [6, 15] | mortality at 500 ppm [5] | percent control (mortality or growth inhibition) at 200 ppm [3, 13]

CC(c1ncnn1-c1ncccn1)N(CCCF)C(=O)c1cc(C(F)(F)F)cc(C(F)(F)F)c1 (stereo not shown) [Compound 54]
≥ 80%: percent control (mortality, anti-feedant effect or growth inhibition) at 200 ppm [1, 11] | mortality at 200 ppm [10] | percent control (mortality or growth inhibition) at 200 ppm [2, 12] | mortality at 12.5 ppm [7] | percent control (mortality or growth inhibition) at 200 ppm [3, 13]

CC(c1ncnn1-c1ncccn1)N(CCC(F)(F)F)C(=O)c1cc(C(F)(F)F)cc(C(F)(F)F)c1 (stereo not shown) [Compound 55]
≥ 80%: percent control (mortality, anti-feedant effect or growth inhibition) at 12.5 ppm [8] | percent control (mortality or growth inhibition) at 200 ppm [6, 15] | percent control (mortality, anti-feedant effect or growth inhibition) at 200 ppm [4, 14] | percent control (mortality, anti-feedant effect or growth inhibition) at 200 ppm [1, 11] | mortality at 200 ppm [10] | percent control (mortality or growth inhibition) at 200 ppm [2, 12] | mortality at 500 ppm [5] | mortality at 12.5 ppm [7] | percent control (mortality or growth inhibition) at 200 ppm [3, 13]

CC(c1ncnn1-c1ncccn1)N(CCF)C(=O)c1cc(C(F)(F)F)cc(C(F)(F)F)c1 (stereo not shown) [Compound 56]
≥ 80%: percent control (mortality, anti-feedant effect or growth inhibition) at 12.5 ppm [8] | percent control (mortality or growth inhibition) at 200 ppm [6, 15] | percent control (mortality, anti-feedant effect or growth inhibition) at 200 ppm [1, 11] | mortality at 200 ppm [10] | percent control (mortality or growth inhibition) at 200 ppm [2, 12] | mortality at 500 ppm [5] | mortality at 24 ppm [9] | mortality at 12.5 ppm [7] | percent control (mortality or growth inhibition) at 200 ppm [3, 13]

CC(c1ncnn1-c1ccccn1)N(CC1COC1)C(=O)c1cc(C(F)(F)F)cc(C(F)(F)F)c1 (stereo not shown) [Compound 62]
≥ 80%: percent control (mortality or growth inhibition) at 200 ppm [3, 13]
